Biological target: Recombinant human HSD17B13 (Homo sapiens (Human), UniProt Q7Z5P4)
Assay: HSD17B13 rapid-fire mass spectrometry assay (RF/MS assay)
Format: biochemical
Conditions: inhibition of HSD17B13; LTB4 10 μM, NAD+ 0.5 mM, RT 3 h; IC50 ranges A-E
Outline: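 Sf9-expressed human HSD17B13 (80 nM) with 10 μM LTB4 and 0.5 mM NAD+, incubated with compound (0–100 μM) for 3 h at RT in Tris pH 7.5/BSA/Tween-20. After formic acid quench, LTB4 conversion to 12-oxo-LTB4 measured by RapidFire MS/MS. IC50 from normalised residual activity, duplicates.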

Sequence of Recombinant human HSD17B13 (Q7Z5P4 20-300): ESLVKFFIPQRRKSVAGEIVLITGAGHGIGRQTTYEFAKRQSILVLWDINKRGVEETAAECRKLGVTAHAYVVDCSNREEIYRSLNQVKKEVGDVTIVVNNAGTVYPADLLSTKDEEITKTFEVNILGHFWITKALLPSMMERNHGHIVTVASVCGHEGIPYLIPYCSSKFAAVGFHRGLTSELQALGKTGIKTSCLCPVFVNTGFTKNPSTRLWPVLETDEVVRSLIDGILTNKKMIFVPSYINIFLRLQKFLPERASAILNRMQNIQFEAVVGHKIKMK

Compound	IC50 [nM]
CC[C@H]1CC[C@@H](c2ccc(-c3nc(S(=O)(=O)Nc4ccc(C(=O)O)cc4OC)co3)cc2)CC1 [Example 489]	100 to 500
COc1cc(C(=O)O)ccc1NS(=O)(=O)c1cc(F)cc(-c2ccc(C3CCCCC3)cc2)c1 [Example 438]	< 100
COc1cc(C(=O)O)c(F)cc1NS(=O)(=O)c1csc(-c2ccc(C3CCC(C)(C)CC3)c(C)c2F)n1 [Example 571]	< 100
COc1cc(C(=O)O)ccc1NS(=O)(=O)c1csc(C#Cc2ccc(C(C)C)cc2)n1 [Example 189]	< 100
COc1cc(C(=O)O)ccc1NS(=O)(=O)c1csc(N2CCC(Cc3ccccc3)CC2)n1 [Example 260]	1000 to 100000
COc1cc(C(=O)O)ccc1NS(=O)(=O)c1csc(-c2ccc(-c3ccc(F)cc3)cc2)n1 [Example 296]	1000 to 100000
COc1cc(C(=O)O)ccc1NS(=O)(=O)c1csc(N2CCN(c3ccc(N(C)C)cc3)CC2)n1 [Example 291]	1000 to 100000
O=C(O)c1ccc(NS(=O)(=O)c2cnc(-c3ccc(F)cc3)s2)c(F)c1F [Example 50]	100 to 500
COc1cc(C(=O)O)ccc1NS(=O)(=O)c1csc(-c2ccc3cc(C4=CCC(C)(C)CC4)ccc3c2)n1 [Example 459, 4-((2-(6-(4,4-dimethylcyclohex-1-en-1-yl)naphthalen-2-yl)thiazole)-4-sulfonamido)-3-methoxybenzoic acid]	500 to 1000
COc1cc(C(=O)O)c(F)cc1NS(=O)(=O)c1csc(C#Cc2ccc(Cl)cc2)n1 [Example 228]	< 100
O=C(O)c1ccc2c(c1)CCN2S(=O)(=O)c1ccccc1 [Example 13]	1000 to 100000
COc1cc(C(=O)O)c(Cl)cc1NS(=O)(=O)c1cnc(-c2ccc(F)cc2)s1 [Example 78]	500 to 1000
COc1cc(C(=O)NO)ccc1NS(=O)(=O)c1cnc(-c2ccc(F)cc2)s1 [Example 69, 4-((2-(4-fluorophenyl)thiazole)-5-sulfonamido)-N-hydroxy-3-methoxybenzamide]	1000 to 100000
COc1cc(C(=O)O)c(F)cc1NS(=O)(=O)c1csc(-c2ccc(C3CCC(C)(C)CC3)c(C(N)=O)c2)n1 [Example 533]	500 to 1000
COc1cc(C(=O)O)c(F)cc1NS(=O)(=O)c1cccc(-c2ccc([C@H]3CC[C@@H](C(C)(C)C)CC3)cc2)c1F [Example 500]	< 100
COc1cc(C(=O)O)c(F)cc1NS(=O)(=O)c1csc(-c2ccc(C3CCC(C)(C)CC3)c(OC)c2)n1 [Example 525]	500 to 1000
COc1cc(C(=O)O)ccc1NS(=O)(=O)c1csc(-c2ccc(-c3ccccc3)nc2)n1 [Example 299]	1000 to 100000
COc1cc(C(=O)O)ccc1NS(=O)(=O)N1Cc2cccc(-c3ccc(C4CCCCC4)cc3)c2C1 [Example 360]	1000 to 100000
COc1cc(C(=O)O)c(F)cc1NS(=O)(=O)c1csc(C#CC2CCC(C)(C)CC2)n1 [Example 514]	< 100
COc1ccc(OC(F)(F)F)cc1C#Cc1nc(S(=O)(=O)Nc2ccc(C(=O)O)cc2OC)cs1 [Example 402]	100 to 500
COc1cc(C(=O)O)ccc1NS(=O)(=O)c1csc(-c2cccc(C(F)(F)F)c2)n1 [Example 126]	500 to 1000
O=C(O)c1ncc(NS(=O)(=O)c2cnc(-c3ccc(F)cc3)s2)cn1 [Example 106]	1000 to 100000

Compound	IC50 [nM]
COc1cc(C(=O)O)ccc1NS(=O)(=O)c1csc(N2CCCC(Cc3ccc(C(F)(F)F)cc3)C2)n1 (centres unmarked) [Example 283]	100 to 500
COc1cc(C(=O)O)c(F)cc1NS(=O)(=O)c1csc(-c2ccc(C3=CCC(C)(C)CC3)cc2C(F)F)n1 [Example 590]	< 100
COc1cc(C(=O)O)c(F)cc1NS(=O)(=O)c1csc(-c2cc(F)c(C3CCC(C)(C)CC3)cc2F)n1 [Example 519]	100 to 500
COc1cc(C(=O)O)c(F)cc1NS(=O)(=O)c1csc(-c2cc(F)c(C3=CCC(C)(C)CC3)cc2F)n1 [Example 518]	100 to 500
COc1ccc(C#Cc2nc(S(=O)(=O)Nc3cc(F)c(C(=O)O)cc3OC)cs2)cc1 [Example 221]	< 100
COc1cc(C(=O)O)ccc1NS(=O)(=O)c1csc(N2CCN(C(=O)OCc3ccccc3)CC2)n1 [Example 294]	100 to 500
CCc1cc(C2CCC(C)(C)CC2)ccc1-c1nc(S(=O)(=O)Nc2cc(F)c(C(=O)O)cc2OC)cs1 [Example 572]	< 100
O=C(O)c1cccc(NS(=O)(=O)c2cnc(-c3ccc(F)cc3)s2)c1 [Example 17]	> 100000
COc1ccc(-c2nc(S(=O)(=O)Nc3ccc(C(=O)O)cc3OC)co2)cc1 [Example 415]	< 100
COc1cc(C(=O)O)ccc1NS(=O)(=O)c1ccc2sc(-c3ccc(C4CCC(C)(C)CC4)cc3)nc2c1 [Example 456, 4-((2-(4-(4,4-dimethylcyclohexyl)phenyl)benzo[d]thiazole)-5-sulfonamido)-3-methoxybenzoic acid]	1000 to 100000
COc1cc(C(=O)O)ccc1NS(=O)(=O)c1csc(-c2cccc3cnn(C)c23)n1 [Example 403, 3-methoxy-4-((2-(1-methyl-1H-indazol-7-yl)thiazole)-4-sulfonamido)benzoic acid]	500 to 1000
COc1cc(C(=O)O)ccc1NS(=O)(=O)c1csc(-c2ccc(C#N)cc2)n1 [Example 148]	1000 to 100000
COc1cc(C(=O)O)c(F)cc1NS(=O)(=O)c1csc(-c2ccc(C3=CCC(C)(C)CC3)c(F)c2F)n1 [Example 520]	100 to 500
COc1cc(C(=O)O)ccc1NS(=O)(=O)c1csc(N2CCCC(Cc3ccccc3)C2)n1 (centres unmarked) [Example 258]	500 to 1000
COc1cc(C(=O)O)c(F)cc1NS(=O)(=O)c1csc(-c2ccc(C3=CCC(C)(C)CC3)cc2C2CC2)n1 [Example 544]	100 to 500
COc1cc(C(=O)O)c(F)cc1NS(=O)(=O)c1csc(-c2cnc(C3=CCC(C)(C)CC3)c(F)c2)n1 [Example 552]	100 to 500
COc1cc(C(=O)O)c(F)cc1NS(=O)(=O)c1ccc(-c2ccc(C(F)(F)F)cc2)s1 [Example 230]	100 to 500
COc1cc(C(=O)O)ccc1NS(=O)(=O)N1CCN(c2cccc(-c3ccccc3)c2)CC1 [Example 321]	1000 to 100000
CCCCOc1c(C2CCC(C)(C)CC2)ccc(-c2nc(S(=O)(=O)Nc3cc(F)c(C(=O)O)cc3OC)cs2)c1F [Example 581]	100 to 500
COc1cc(NS(=O)(=O)c2cnc(-c3ccc(F)cc3)s2)ccc1C(=O)O [Example 22]	1000 to 100000
COc1cc(C(=O)O)c(F)cc1NS(=O)(=O)c1csc(-c2ccc(C3CCC(C)(C)CC3)cc2)n1 [Example 372]	< 100
O=C(O)c1ccc(NS(=O)(=O)c2ccc3ccccc3c2)cc1 [Example 4]	1000 to 100000

Results, then the compound that gave them:

IC50 [nM]	Compound
< 100	COc1cc(C(=O)O)c(F)cc1NS(=O)(=O)c1csc(-c2ccc([C@H]3CC[C@H](C(F)(F)F)CC3)cc2C(F)(F)F)n1 [Example 607]
100 to 500	COc1cc(C(=O)O)c(F)cc1NS(=O)(=O)c1csc(-c2ccc(-c3cc4ccccc4[nH]3)cc2)n1 [Example 637]
1000 to 100000	COc1cc(C(=O)O)c(C2CC2)cc1NS(=O)(=O)c1csc(-c2ccc(C3CCC(C)(C)CC3)cc2C(F)(F)F)n1 [Example 699]
100 to 500	COc1cc(C(=O)O)c(F)cc1NS(=O)(=O)c1csc(-c2ccc(C(F)(F)C(F)(F)F)cc2)n1 [Example 745]
500 to 1000	COc1cc(C(=O)O)c(Cl)cc1NS(=O)(=O)c1csc(-c2ccc(C3CCC(C)(C)CC3)cc2C(F)(F)F)n1 [Example 696]
< 100	COc1cc(C(=O)O)c(F)cc1NS(=O)(=O)c1cnc(-c2ccc([C@H]3CC[C@H](C)CC3)cc2)s1 [Example 627]
100 to 500	COc1cc(C(=O)O)c(F)cc1NS(=O)(=O)c1csc(-c2ccc(CC3CCCCC3)cc2)n1 [Example 624]
100 to 500	COc1cc(C(=O)O)ccc1NS(=O)(=O)c1cnc(-c2ccc(C3CCC4(CC3)CC4)cc2)s1 [Example 746]
100 to 500	COc1cc(C(=O)O)c(F)cc1NS(=O)(=O)c1ccn(-c2ccc([C@H]3CC[C@@H](C(C)C)CC3)cc2)n1 [Example 693]
< 100	COc1cc(C(=O)O)ccc1NS(=O)(=O)c1csc(-c2ccc(C3=CCC(C(F)(F)F)CC3)cc2)n1 (centres unmarked) [Example 716]
< 100	COc1cc(C(=O)O)c(F)cc1NS(=O)(=O)c1csc(-c2ccc(-c3ccc4c(c3)NCCO4)cc2)n1 [Example 653]
< 100	COc1cc(C(=O)O)c(F)cc1NS(=O)(=O)c1csc(-c2ccc(C3=CCC(C(C)C)CC3)c(OC)c2F)n1 (centres unmarked) [Example 799]
< 100	COc1cc(C(=O)O)c(F)cc1NS(=O)(=O)c1csc(-c2ccc([C@H]3CC[C@H](C(C)C)CC3)c(OC)c2F)n1 [Example 803]
< 100	COc1cc(C(=O)O)c(F)cc1NS(=O)(=O)c1csc(-c2ccc([C@H]3CC[C@H](C(F)(F)F)CC3)c(OC)c2F)n1 [Example 605]
< 100	COc1cc(C(=O)O)ccc1NS(=O)(=O)c1cnc(-c2ccc([C@H]3CC[C@@H](C(F)(F)F)CC3)cc2)s1 [Example 712]
< 100	COc1cc(C(=O)O)c(OC)cc1NS(=O)(=O)c1csc(-c2ccc(C3CCC(C)(C)CC3)cc2C(F)(F)F)n1 [Example 680]
100 to 500	COc1cc(C(=O)O)c(F)cc1NS(=O)(=O)c1csc(-c2ccc(-c3ccc(-c4ccc(C5(C(F)(F)F)CC5)cc4)cc3C(F)(F)F)cc2C(F)(F)F)n1 [Example 796]
< 100	COc1cc(C(=O)O)c(F)cc1NS(=O)(=O)c1coc(-c2ccc([C@H]3CC[C@H](C(F)(F)F)CC3)cc2C(F)(F)F)n1 [Example 679]
< 100	COc1cc(C(=O)O)c(F)cc1NS(=O)(=O)c1csc(-c2ccc(C3=CCC(C(C)C)CC3)cc2)n1 (centres unmarked) [Example 774]
< 100	COc1cc(C(=O)O)c(F)cc1NS(=O)(=O)c1csc(-c2ccc(C3=CCC(C(F)(F)F)CC3)c(C)c2F)n1 (centres unmarked) [Example 813]
1000 to 100000	CN(C)c1cc(C(=O)O)ccc1NS(=O)(=O)c1csc(-c2ccc(C3CCC(C)(C)CC3)cc2C(F)(F)F)n1 [Example 697]
